Values of other authors in patent CN116041271A, “一种氟苯尼考中间体的制备方法” (Shandong Weiyan Biotechnology Co ltd, priority 2022, dated 2023).

How the values were obtained:
Fusobacterium (梭杆菌) = conditions: in words; cattle
[1] = in words
[2] = administered in feed
[3] = in words; remark: listed apart in the source

## CS(=O)(=O)c1ccc([C@@H](O)[C@@H](CF)NC(=O)C(Cl)Cl)cc1 [氟苯尼考]
Compared with chloramphenicol, thiamphenicol
  antibacterial effect relative to chloramphenicol and thiamphenicol: 15-20 times
In words
  antibacterial spectrum: 广
  bacteriostatic action: 强
  minimum inhibitory concentration (MIC): 低
Fusobacterium (梭杆菌)
  therapeutic effect on bovine foot rot caused by Fusobacterium: 有较好疗效
[1]
  control of disease: 能迅速控制病情
[2]
  time after administration to peak drug concentration in tissue: 60 min
[3]
  potential risk of causing aplastic anemia: 无潜在致再生障碍性贫血的隐患
  residue: 无残留
  safety: 安全性高
  toxicity: 无毒
